# Assays:
# Human hair follicles [1] = assay: Growth of human hair follicle (length measurements in culture); assay type: cell-based; details: for Growth (% of control): hair follicle length
# Method: (§1) Human hair follicles were obtained from human skin fragments (obtained by plastic surgery) and grown in supplemented William's E medium supplemented with penicillin/streptomycin, L-glutamine (2 mM), insulin (10 μg/ml and hydrocortisone (8 nM). Hair follicle growth was assessed via length measurements (day 0, 4, 7). Triiodothyronine (T3, 30 μM) was used as positive control. The effect of steviol (at 0.625 to 5 μg/ml) was tested in parallel. At day 7, RNA was extracted from hair follicles that had been subjected to different treatments (control, T3, steviol). RNA was processed for Affymetrix® DNA microarray analysis in order to identify effects of compounds on gene expression. Where appropriate, RNA expression levels were further quantified by RT-PCR using the ABI 7900 Taqman instrumentation.
# [2] = system: Normal human melanocytes NHM (HEMn-MP, Clonetics); assay: Quantification of melanin synthesis in cell culture; assay type: cell-based; details: for Melanin content, percentage of the control: three days, absorbance 405 nm
# Method: Normal human melanocytes NHM (HEMn-MP, Clonetics) were seeded in 96 well cell culture plates and grown to sub-confluence for two days in a mixture of M2-Medium (Clonetics) and Medium (Promocell). Culture medium was exchanged with Culture Medium containing Steviol and melanogenesis progressed for another three days at 37° C. with another medium exchange on day two. Including cell layer and culture supernatant the total melanin was extracted using 1.7M KOH with vigorous shaking at RT. We measured melanin content at 405 nm in an absorbance plate reader. The data is normalized to 100% for the un-treated control sample, and expressed as percentage of the control.
# [3] = system: normal human scalp skin hair follicles; assay: Hair follicle melanogenesis (in vitro graying of cultured anagen VI scalp hair follicles); assay type: cell-based; parameters: key: remaining pigmentation is scored minimal (+); steviol 1.25 μM (++); Remaining pigmentation is scored (+++); details: seven day culture
# Description: For optimal quality of hair follicles with an intact pigmentary-unit, normal human scalp skin hair follicles in the anagen VI stage of the hair cycle were isolated from scalp skin biopsies obtained from elective plastic surgery after obtaining informed consent from patients following the protocol published by Philpott and colleagues with slight modifications (Philpott et al. 1990, Philpott 1999). Briefly, after separation of epidermis and dermis from subcutaneous fat the dermis just above the dermis/subcutis border under a binocular dissecting microscope, the proximal two thirds of anagen hair follicles located in the subcutaneous fat were isolated using watchmakers forceps and subsequently collected in Petri dishes containing complete hair follicle culture medium (Williams E, Biochrom KG seromed, Berlin, Germany); 1% Penicillin-Streptomycin; 1% L-Glutamine 200 mM; 0.02% hydrocortisone; 0.1% Insulin. Three hair follicles per well were then randomly distributed and cultured in 24 well plates (Costar, N.Y., USA) containing […] of complete hair follicle culture medium per well. Per experiment, a minimum of three wells (containing three hair follicles each) was assigned to each test group, and was supplemented with different concentrations of test substances pre-diluted in the respective dissolvent 100× concentrated. An equal number of control follicles were cultured in complete hair follicle culture medium alone. Each experiment was repeated with hair follicles from at least three different age, pigmentation and sex matched donors. Every second day, each well was photo-documented, the pigmentation degree of each hair follicle determined, medium replaced and fresh supplements added. After 7 days hair follicles were snap frozen and stored at −80° C. Steviol was tested at two different concentrations (0.625 and 1.25 μM). […] Sphingosyl phosphorylcholine at 1 μM was used as a positive control as it is known from previous work to reduce the speed of in vitro hair graying. Remaining pigmentation is scored (+++). […]
# Human hair follicles [4] = assay: RT-PCR mRNA level of marker genes in hair follicles; assay type: cell-based
# Method: as §1, with “The effect of steviol (at 0.625 to 5 μg/ml) was tested in parallel.” left out, “instrumentation. The mRNA level of some marker genes involved in growth and/or differentiation of cells in the skin and in hair follicle was further determined by RT-PCR and is shown in Table 3.” for “instrumentation.”
# [5] = Stabilization of steviol in acidic aqueous solution (discoloration, Pantone color index); assay type: physicochemical; details: for Pantone index (color index of solution): 1% solution in water
# Method: Steviol was dissolved at 1 wt.-% in water and the pH adjusted at different values as shown below. […] However, the more acidic the pH, the less discoloration was observed as reported by the patone color index. Color index of 1% Steviol solution in water at different pH: […]
# Human hair follicles [6] = assay: Affymetrix DNA microarray gene expression in hair follicles; assay type: cell-based; details: day 7 RNA
# Method: as §1, with “instrumentation. Global effects of steviol on gene expression were determined by transcriptomics i.e. DNA microarray analysis. The obtained data were processed with Genedata software tools.” for “instrumentation.”
smiles,measurement,setting,value
"N[C@@H](Cc1cc(I)c(Oc2ccc(O)c(I)c2)c(I)c1)C(=O)O [Triiodothyronine, reference compound]",Growth (% of control),"Human hair follicles [1]; 30 μM, day 0, 4, 7",133 % of control
"CC1(C)[C@@H](O[C@H]2O[C@H](C(=O)O)[C@@H](O)[C@H](O)[C@H]2O[C@@H]2O[C@H](C(=O)O)[C@@H](O)[C@H](O)[C@H]2O)CC[C@]2(C)[C@H]3C(=O)C=C4[C@@H]5C[C@@](C)(C(=O)O)CC[C@]5(C)CC[C@@]4(C)[C@]3(C)CC[C@@H]12 [Glycyrrhizin, reference compound]","Melanin content, percentage of the control",[2]; 1.5 mM,132%
"CCCCCCCCCCCCC/C=C/[C@@H](O)[C@@H](N)COP(=O)([O-])OCC[N+](C)(C)C [Sphingosylphosphorylcholine, reference compound]",Pigmentation (remaining hair follicle pigmentation score),[3]; 1 microM,+++
"C=C1C[C@@]23CC[C@H]4[C@@](C)(CCC[C@@]4(C)C(=O)O)[C@@H]2CC[C@]1(O)C3 [Steviol, steviol]","Fold changes (versus control), Integrin alpha-6 mRNA",Human hair follicles [4]; 0.625 μg/mL,1.62 ± 0.06
same,"Fold changes (versus control), COX-2 mRNA",Human hair follicles [4]; 1.25 μg/mL,0.46 ± 0.17
same,"Fold changes (versus control), HO-1 mRNA",Human hair follicles [4]; 1.25 μg/mL,0.64 ± 0.08
same,"Fold changes (versus control), Involucrin mRNA",Human hair follicles [4]; 1.25 μg/mL,0.51 ± 0.22
same,"Fold changes (versus control), Keratin 6 mRNA",Human hair follicles [4]; 10 μg/mL,1.33 ± 0.11
same,"Melanin content, percentage of the control",[2]; 0.25 microM,109%
same,Production of melanin in human melanocytes (in words),[2]; 0.25 to 1 micro M,clear dose dependent positive effect on the production of melanin
same,"Melanin content, percentage of the control",[2]; 0.5 micro M,124%
same,"Melanin content, percentage of the control",[2]; 1 micro M,130%
same,Pantone index (color index of solution),[5]; pH 6,155
same,Pantone index (color index of solution),[5]; pH 6.5,155
same,Pantone index (color index of solution),[5]; pH 7,158
same,Pantone index (color index of solution),[5]; pH 9,160
same,Time until solution turns brown (instability),"[5]; 1 wt.-% in water, pH 9",≤ 1 days
same,"Ratio of steviol-treated/untreated, gene CASP8 and FADD-like apoptosis regulator",Human hair follicles [6],2.58
same,"Ratio of steviol-treated/untreated, gene Chemokine (C-X-C motif) ligand 12 (stromal cell-derived factor 1)",Human hair follicles [6],2.22
same,"Ratio of steviol-treated/untreated, gene Collagen, type IV, alpha 6",Human hair follicles [6],2.04
same,"Ratio of steviol-treated/untreated, gene Fibroblast growth factor 7 (keratinocyte growth factor)",Human hair follicles [6],2.91
same,"Ratio of steviol-treated/untreated, gene Insulin-like growth factor 1 receptor",Human hair follicles [6],2.00
same,"Ratio of steviol-treated/untreated, gene Integrin, alpha 6",Human hair follicles [6],2.15
same,"Ratio of steviol-treated/untreated, gene TIMP metallopeptidase inhibitor 3",Human hair follicles [6],2.32
same,"Ratio of steviol-treated/untreated, gene Topoisomerase (DNA) II alpha 170 kDa",Human hair follicles [6],2.45
same,"Ratio of steviol-treated/untreated, gene Transmembrane protein with EGF-like and two follistatin-like domains 2",Human hair follicles [6],3.10
same,Growth (% of control),Human hair follicles [1]; 0.625 μg/mL,122 % of control
same,Growth (% of control),Human hair follicles [1]; 1.25 μg/mL,121 % of control
same,Growth (% of control),Human hair follicles [1]; 2.5 μg/mL,113 % of control
same,Growth (% of control),Human hair follicles [1]; 5 μg/mL,117 % of control
same,Elongation of hair follicles (in words),Human hair follicles [1]; 0.625 to 5 μg/ml,dose-dependently favoured the elongation of hair follicles
same,Pigmentation (remaining hair follicle pigmentation score),[3]; 0.625 microM,+++
same,Pigmentation (remaining hair follicle pigmentation score),[3]; 1.25 microM,++
